Results published in patent US20250064789A1, “KETOAMIDE DERIVATIVES AND PHARMACEUTICAL USES THEREOF” (priority 2022, published 2025).

What was measured:
human thrombin = human thrombin (Homo sapiens (Human), UniProt P00734); experiment: Human protease biochemical activity assay: Thrombin activity testing kit; conditions: read-out: Thrombin IC50
Description: (§1) The biochemical activity of compounds against human proteases was determined using Cathepsin K inhibitor screening kit (K150-100), Cathepsin B inhibitor screening kit (K147-100), Thrombin activity testing kit (K373-100), Caspase-2 inhibitor screening kit (K152-100), and Cathepsin D inhibitor screening kit (K148-100) according to the instructions of the kits (Biovision, USA). All experiments were carried out in triplicate. All experimental data were analyzed using GraphPad Prism software.

[1] = Metabolic stability using human liver microsomes; assay type: in vitro ADME; conditions: 37° C.; for Human liver microsomes T1/2: NADPH
human cathepsin K = human cathepsin K (Homo sapiens (Human), UniProt P43235); experiment: Human protease biochemical activity assay: Cathepsin K inhibitor screening kit; conditions: read-out: Cathepsin K IC50
Description: as §1

[2] = molecular target: recombinant SARS-CoV-2 M^pro (Severe acute respiratory syndrome coronavirus 2 (2019-nCoV) (SARS-CoV-2), UniProt P0DTD1); experiment: Inhibition of SARS-CoV-2 M^pro enzyme activity (fluorescent substrate assay); assay type: biochemical; conditions: inhibition of SARS-CoV-2 M^pro enzyme activity; values in nM; read-out: IC50
Vero E6 cells = experiment: Cytotoxic assay against Vero E6 cells (MTT, 72 h); assay type: cell-based
Description: (§2) The cytotoxicity assessment of compounds was performed against Vero E6 cells. The specific experimental procedures: Vero E6 cells were seeded into a 96-well plate at a cell density of 2×10^4 cells/well, with 100 μL/well, and then incubated overnight at 37° C. in a 5% CO2 incubator. The next day, 100 μL of drug-containing medium was added to each well. The compound was diluted in a 2-fold serial dilution with a top concentration of […], for a total of 6 gradients. Three repeated wells were set for each concentration, and negative controls and blank controls without drugs were included for each experiment. […] All experimental data were analyzed using GraphPad Prism software.

[3] = tested on: BEAS-2B cells (normal human bronchial epithelial cells); experiment: Cytotoxic assay against human BEAS-2B cells (MTT, 72 h); assay type: cell-based
Description: (§3) BEAS-2B cells (normal human bronchial epithelial cells) and HUVEC cells (human umbilical vein endothelial cells) were used to evaluate the cytotoxicity of compounds against human-derived cells. The detailed experimental procedures: BEAS-2B cells or HUVEC cells were seeded into a 96-well plate at a cell density of 2×10^4 cells/well, that is, 100 µL/well, and then incubated overnight at 37° C. in a 5% CO2 incubator. The next day, 100 μL of drug-containing medium was added to each well. The compound was diluted in a 2-fold serial dilution with a top concentration of […], for a total of 6 gradients. Three repeated wells were set for each concentration, and negative controls and blank controls without drugs were included for each experiment. […] All experimental data were analyzed using GraphPad Prism software.

human cathepsin D = human cathepsin D (Homo sapiens (Human), UniProt P07339); experiment: Human protease biochemical activity assay: Cathepsin D inhibitor screening kit
Description: as §1

[4] = tested on: HUVEC cells (human umbilical vein endothelial cells); experiment: Cytotoxic assay against HUVEC cells (MTT, 72 h); assay type: cell-based
Description: as §3

human caspase 2 = human caspase 2 (Homo sapiens (Human), UniProt P42575); experiment: Human protease biochemical activity assay: Caspase-2 inhibitor screening kit; conditions: read-out: Caspase-2 IC50
Description: as §1

[5] = male, Sprague-Dawley, rat, in vivo, iv, 1 mg/kg
[6] = In vivo pharmacokinetic properties in rats; conditions: SD rats
human cathepsin B = human cathepsin B (Homo sapiens (Human), UniProt P07858); experiment: Human protease biochemical activity assay: Cathepsin B inhibitor screening kit
Description: as §1

in vivo = conditions: male, Sprague-Dawley, rat
[7] = molecular target: hERG potassium ion channels (Homo sapiens (Human), UniProt Q12809); experiment: hERG potassium current, whole cell patch clamp in HEK-293-hERG cells; conditions: 0.1 μM
[8] = Cytotoxic assay against Vero E6 cells (MTT, 72 h); assay type: cell-based; conditions: African green monkey
Description: as §2

[9] = Cytotoxic assay against human BEAS-2B cells (MTT, 72 h); assay type: cell-based; conditions: human
Description: as §3

[10] = Cytotoxic assay against HUVEC cells (MTT, 72 h); assay type: cell-based, human; conditions: human
Description: as §3

Sequence of human cathepsin K (P43235 115-329): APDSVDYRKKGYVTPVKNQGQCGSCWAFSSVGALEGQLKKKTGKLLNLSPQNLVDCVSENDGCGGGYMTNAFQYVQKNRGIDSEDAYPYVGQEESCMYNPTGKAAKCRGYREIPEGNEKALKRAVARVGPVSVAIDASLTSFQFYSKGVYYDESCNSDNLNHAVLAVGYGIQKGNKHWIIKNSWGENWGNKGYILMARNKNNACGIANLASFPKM
Sequence of human caspase 2 (P42575 170-325): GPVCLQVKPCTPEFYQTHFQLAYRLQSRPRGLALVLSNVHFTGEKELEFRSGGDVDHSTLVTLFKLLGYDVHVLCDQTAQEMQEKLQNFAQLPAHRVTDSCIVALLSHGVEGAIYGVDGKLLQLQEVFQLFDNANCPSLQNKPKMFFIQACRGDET
Sequence of human caspase 2 (P42575 348-452): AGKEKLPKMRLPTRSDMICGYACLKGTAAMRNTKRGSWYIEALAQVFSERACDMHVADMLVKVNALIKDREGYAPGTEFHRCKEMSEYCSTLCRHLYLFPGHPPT
Sequence of human cathepsin D (P07339 65-412): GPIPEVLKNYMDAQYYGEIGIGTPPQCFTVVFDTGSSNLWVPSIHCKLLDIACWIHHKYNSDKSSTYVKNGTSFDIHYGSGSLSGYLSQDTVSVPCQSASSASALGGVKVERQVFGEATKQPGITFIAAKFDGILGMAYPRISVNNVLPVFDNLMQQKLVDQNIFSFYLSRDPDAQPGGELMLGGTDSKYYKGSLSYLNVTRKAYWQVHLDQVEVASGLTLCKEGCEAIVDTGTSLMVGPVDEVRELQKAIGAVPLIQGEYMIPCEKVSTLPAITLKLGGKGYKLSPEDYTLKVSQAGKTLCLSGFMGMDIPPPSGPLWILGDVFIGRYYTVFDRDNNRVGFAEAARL
Sequence of hERG potassium ion channels (Q12809 whole entry, looked up): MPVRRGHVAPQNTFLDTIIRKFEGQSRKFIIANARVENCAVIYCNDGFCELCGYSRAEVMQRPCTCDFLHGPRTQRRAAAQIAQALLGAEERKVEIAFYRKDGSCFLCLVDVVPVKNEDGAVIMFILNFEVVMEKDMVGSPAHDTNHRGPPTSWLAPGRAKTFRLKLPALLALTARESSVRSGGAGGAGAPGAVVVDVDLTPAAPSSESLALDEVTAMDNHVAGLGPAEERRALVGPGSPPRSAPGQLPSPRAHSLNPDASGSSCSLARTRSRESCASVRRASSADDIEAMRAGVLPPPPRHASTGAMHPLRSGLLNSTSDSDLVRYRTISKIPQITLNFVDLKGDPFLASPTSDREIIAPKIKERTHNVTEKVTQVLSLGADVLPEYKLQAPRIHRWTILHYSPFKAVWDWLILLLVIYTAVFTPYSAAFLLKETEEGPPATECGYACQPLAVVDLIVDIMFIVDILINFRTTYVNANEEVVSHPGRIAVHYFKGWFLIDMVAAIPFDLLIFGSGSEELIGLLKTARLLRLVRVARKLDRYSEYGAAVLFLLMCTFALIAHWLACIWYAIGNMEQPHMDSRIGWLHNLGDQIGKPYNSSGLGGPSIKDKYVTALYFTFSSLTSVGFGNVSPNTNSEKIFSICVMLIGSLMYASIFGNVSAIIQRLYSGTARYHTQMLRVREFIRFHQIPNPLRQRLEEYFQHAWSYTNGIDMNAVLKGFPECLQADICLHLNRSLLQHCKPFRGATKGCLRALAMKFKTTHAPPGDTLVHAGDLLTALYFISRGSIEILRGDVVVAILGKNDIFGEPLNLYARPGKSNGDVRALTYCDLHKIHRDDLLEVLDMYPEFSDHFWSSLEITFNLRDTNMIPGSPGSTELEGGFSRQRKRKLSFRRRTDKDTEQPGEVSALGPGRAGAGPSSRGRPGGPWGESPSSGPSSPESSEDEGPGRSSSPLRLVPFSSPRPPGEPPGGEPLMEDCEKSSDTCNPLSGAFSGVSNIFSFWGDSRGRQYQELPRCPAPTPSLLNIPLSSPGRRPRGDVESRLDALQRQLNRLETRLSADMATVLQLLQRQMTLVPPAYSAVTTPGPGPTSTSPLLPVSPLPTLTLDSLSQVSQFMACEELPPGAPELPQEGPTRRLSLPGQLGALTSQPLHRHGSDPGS

| SMILES | IC50 (human thrombin) | IC50 (human cathepsin K) | IC50 [2] | CC50 (Vero E6 cells) | CC50 [3] | IC50 (human cathepsin D) | CC50 [4] | IC50 (human caspase 2) | Vssobs [5] | AUCINF—obs ([6]; i.v. 1 mg/kg) | AUClast ([6]; i.v. 1 mg/kg) | Cmax ([6]; i.v. 1 mg/kg) | AUCINF—obs ([6]; p.o. 10 mg/kg) | AUClast ([6]; p.o. 10 mg/kg) | Cmax ([6]; p.o. 10 mg/kg) | T1/2 ([6]; p.o. 10 mg/kg) | IC50 (human cathepsin B) | MRT inf (in vivo; iv, 1 mg/kg) | Tmax (in vivo; iv, 1 mg/kg) | MRT inf (in vivo; po, 10 mg/kg) | further results |
| --- | --- | --- | --- | --- | --- | --- | --- | --- | --- | --- | --- | --- | --- | --- | --- | --- | --- | --- | --- | --- | --- |
| C[C@@H](NC(=O)C1CCC(F)(F)C1)C(=O)N[C@H](Cc1ccccc1)C(=O)C(=O)NCc1nccs1 (some centres unmarked) [Compound 379] | > 100 µM | > 100 µM | 22.5 ± 0.7 nM | > 500 µM | > 500 µM | > 100 µM | > 500 µM | > 100 µM | 2.49 ± 1.61 L/kg | 1329.00 ± 555.62 ng·h/mL | 1292.28 ± 530.92 ng·h/mL | 1317.59 ± 168.03 ng/mL | 6903.48 ± 2619.87 ng·h/mL | 6721.57 ± 2461.95 ng·h/mL | 634.54 ± 161.39 ng/mL | 4.15 ± 1.48 h | > 100 µM | 1.26 ± 0.42 h | 0.08 h | 5.9 ± 0.79 h | Human liver microsomes T1/2 [1]: 0.7035 h; CL ([6]; i.v. 1 mg/kg): 14.52 ± 7.25 mL/min/kg; T1/2 ([6]; i.v. 1 mg/kg): 1.90 ± 0.27 h; F % ([6]; p.o. 10 mg/kg): 52.01 ± 19.05%; Tmax ([6]; p.o. 10 mg/kg): 1.67 ± 0.58 h |
| COC[C@@H](NC(=O)CC1CC(F)(F)C1)C(=O)N[C@H](Cc1ccccc1)C(=O)C(=O)NCc1nccs1 [Compound 400] | > 100 µM | > 100 µM | 10.2 ± 0.1 nM | > 500 µM | > 500 µM | > 100 µM | > 500 µM | > 100 µM | 3.28 ± 1.17 L/kg | 2394.12 ± 644.94 ng·h/mL | 2357.97 ± 638.69 ng·h/mL | 1352.62 ± 116.10 ng/mL | 11166.54 ± 364.00 ng·h/mL | 10791.37 ± 123.59 ng·h/mL | 805.87 ± 75.43 ng/mL | 4.67 ± 1.04 h | > 100 µM | 3.18 ± 0.52 h | 0.08 h | 6.47 ± 0.5 h | Human liver microsomes T1/2 [1]: 0.5067 h; CL ([6]; i.v. 1 mg/kg): 7.30 ± 1.90 mL/min/kg; T1/2 ([6]; i.v. 1 mg/kg): 5.09 ± 0.57 h; F % ([6]; p.o. 10 mg/kg): 45.77 ± 0.52%; Tmax (in vivo; po, 10 mg/kg): 2 h |
| COc1cc(N)c(Cl)cc1C(=O)NC1CCN(CCCOc2ccc(F)cc2)CC1OC (centres unmarked) [Cisapride, reference compound] | – | – | – | – | – | – | – | – | – | – | – | – | – | – | – | – | – | – | – | – | The average tail current after administration [7]: 128.04 pA |
| COC[C@@H](NC(=O)C1CCC(F)(F)CC1)C(=O)N[C@H](Cc1ccccc1)C(=O)C(=O)NCc1nccs1 [Compound 395] | > 100 µM | > 100 µM | 18.4 ± 1.3 nM | 132 µM | 159 µM | > 100 µM | 129 µM | > 100 µM | 5.25 ± 2.13 L/kg | 2829.72 ± 958.55 ng·h/mL | 2574.49 ± 819.96 ng·h/mL | 1697.71 ± 237.45 ng/mL | 13950.66 ± 782.95 ng·h/mL | 12675.30 ± 1265.92 ng·h/mL | 1006.49 ± 114.61 ng/mL | 6.64 ± 1.17 h | > 100 µM | 3.55 ± 0.52 h | 0.08 h | 7.63 ± 0.57 h | Human liver microsomes T1/2 [1]: 0.6498 h; CL ([6]; i.v. 1 mg/kg): 6.48 ± 2.63 mL/min/kg; T1/2 ([6]; i.v. 1 mg/kg): 9.49 ± 2.16 h; F % ([6]; p.o. 10 mg/kg): 49.23 ± 4.92%; Tmax (in vivo; po, 10 mg/kg): 4 h |
| C[C@@H](NC(=O)CC1CC(F)(F)C1)C(=O)N[C@H](Cc1ccccc1)C(=O)C(=O)NCc1nccs1 [Compound 378] | > 100 µM | > 100 µM | 21.2 ± 0.3 nM | > 500 µM | > 500 µM | > 100 µM | > 500 µM | > 100 µM | 3.65 ± 0.74 L/kg | 2254.80 ± 672.40 ng·h/mL | 2196.61 ± 634.20 ng·h/mL | 1568.34 ± 201.27 ng/mL | 8696.48 ± 1124.53 ng·h/mL | 8180.11 ± 795.05 ng·h/mL | 734.80 ± 101.62 ng/mL | 5.84 ± 1.30 h | > 100 µM | 3.19 ± 0.31 h | 0.08 h | 6.57 ± 0.38 h | CL ([6]; i.v. 1 mg/kg): 7.95 ± 2.80 mL/min/kg; T1/2 ([6]; i.v. 1 mg/kg): 5.47 ± 0.77 h; Tmax ([6]; p.o. 10 mg/kg): 1.33 ± 0.58 h; bioavailability (in vivo; po, 10 mg/kg): 7.95 ± 2.8% |
| C[C@@H](NC(=O)C1CCC(F)(F)CC1)C(=O)N[C@H](Cc1ccccc1)C(=O)C(=O)NCc1nccs1 [Compound 354] | – | – | – | > 500 µM | > 500 µM | – | > 500 µM | – | 1.31 ± 0.54 L/kg | 1020.76 ± 261.50 ng·h/mL | 1011.17 ± 258.49 ng·h/mL | 1105.29 ± 69.99 ng/mL | 2844.61 ± 326.65 ng·h/mL | 2567.31 ± 678.74 ng·h/mL | 306.27 ± 32.12 ng/mL | 3.01 ± 0.91 h | – | 0.93 ± 0.18 h | 0.08 h | 4.89 ± 1.14 h | Human liver microsomes T1/2 [1]: 0.5935 h; F % ([6]; p.o. 10 mg/kg): 25.39 ± 6.71%; Tmax ([6]; p.o. 10 mg/kg): 2.67 ± 1.15 h; half-life (in vivo; iv, 1 mg/kg): 2.42 ± 2.24 h |
| C[C@@H](NC(=O)CC1CC1(F)F)C(=O)N[C@H](Cc1ccccc1)C(=O)C(=O)NCc1cscn1 (some centres unmarked) [Compound 417] | > 100 µM | > 100 µM | 22.1 ± 3 nM | – | – | > 100 µM | – | > 100 µM | – | – | – | – | – | – | – | – | > 100 µM | – | – | 6.55 ± 0.39 h | half-life at 1 µM ([1]; pH 7.4, NADPH, read-out: Human liver microsomes T1/2): 0.534 h; CC50 at 72 h [8]: > 500 µM; CC50 at 72 h [9]: > 500 µM; CC50 at 72 h [10]: > 500 µM; AUC(0-inf) (in vivo; po, 10 mg/kg): 5070 ± 2290 ng·h/mL; AUC(0-t) (in vivo; po, 10 mg/kg): 4890 ± 2320 ng·h/mL; Cmax (in vivo; po, 10 mg/kg): 441 ± 225 ng/mL; Tmax (in vivo; po, 10 mg/kg): 3.33 ± 1.15 h; half-life (in vivo; po, 10 mg/kg): 5.07 ± 1.78 h |
